From PubChem BioAssay AID330 (DTP/NCI, 2004)
Values joined by “and” are separate entries in the source; they are usually repeats but may differ in a detail not shown here. Equal entries are not always repeated. Inconclusive results and toxic doses are left out.

Tested on: P388 leukemia ip, CD2F1 mice, survival T/C
Assay: NCI In Vivo Anticancer Drug Screen. Data for tumor model P388 Leukemia (intraperitoneal) in CD2F1 (CDF1) mice
Conditions: endpoint: median survival time, higher = longer survival
Outline: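 Mice carrying the transplanted tumor received test compound or vehicle. Survival was recorded in each group, and the value is the treated-group measurement divided by that of the vehicle-treated control group.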

[1] = dose: 100.0 mg/kg/injection, schedule: Q01DX001 (ip), vehicle: saline with Tween-80
[2] = dose: 200.0 mg/kg/injection, schedule: Q01DX001 (ip), vehicle: saline with Tween-80
[3] = dose: 400.0 mg/kg/injection, schedule: Q01DX001 (ip), vehicle: saline with Tween-80
[4] = dose: 2.5 mg/kg/injection, schedule: Q01DX009 (ip), vehicle: saline with Tween-80
[5] = dose: 5.0 mg/kg/injection, schedule: Q01DX009 (ip), vehicle: saline with Tween-80
[6] = dose: 10.0 mg/kg/injection, schedule: Q01DX009 (ip), vehicle: saline with Tween-80
[7] = dose: 12.5 mg/kg/injection, schedule: Q01DX009 (ip), vehicle: saline with Tween-80
[8] = dose: 25.0 mg/kg/injection, schedule: Q01DX009 (ip), vehicle: saline with Tween-80
[9] = dose: 50.0 mg/kg/injection, schedule: Q01DX009 (ip), vehicle: saline with Tween-80
[10] = dose: 50.0 mg/kg/injection, schedule: Q01DX005 (ip), vehicle: saline
[11] = dose: 100.0 mg/kg/injection, schedule: Q01DX005 (ip), vehicle: saline
[12] = dose: 60.0 mg/kg/injection, schedule: Q01DX005 (ip), vehicle: Klucel (hydroxypropylcellulose) (HPC)
[13] = dose: 120.0 mg/kg/injection, schedule: Q01DX005 (ip), vehicle: Klucel (hydroxypropylcellulose) (HPC)
[14] = dose: 240.0 mg/kg/injection, schedule: Q01DX005 (ip), vehicle: Klucel (hydroxypropylcellulose) (HPC)
[15] = dose: 50.0 mg/kg/injection, schedule: Q01DX009 (ip), vehicle: Klucel (hydroxypropylcellulose) (HPC)
[16] = dose: 60.0 mg/kg/injection, schedule: Q01DX005 (ip), vehicle: saline with Tween-80
[17] = dose: 60.0 mg/kg/injection, schedule: Q01DX005 (ip), vehicle: saline
[18] = dose: 120.0 mg/kg/injection, schedule: Q01DX005 (ip), vehicle: saline with Tween-80
[19] = dose: 120.0 mg/kg/injection, schedule: Q01DX005 (ip), vehicle: saline
[20] = dose: 240.0 mg/kg/injection, schedule: Q01DX005 (ip), vehicle: saline with Tween-80
[21] = dose: 50.0 mg/kg/injection, schedule: Q01DX005 (ip), vehicle: saline with Tween-80
[22] = dose: 25.0 mg/kg/injection, schedule: Q01DX009 (ip), vehicle: saline
[23] = dose: 50.0 mg/kg/injection, schedule: Q01DX009 (ip), vehicle: saline
[24] = dose: 100.0 mg/kg/injection, schedule: Q01DX009 (ip), vehicle: saline
[25] = dose: 50.0 mg/kg/injection, schedule: Q01DX005 (ip), vehicle: Klucel (hydroxypropylcellulose) (HPC)
[26] = dose: 100.0 mg/kg/injection, schedule: Q01DX005 (ip), vehicle: Klucel (hydroxypropylcellulose) (HPC)
[27] = dose: 200.0 mg/kg/injection, schedule: Q01DX005 (ip), vehicle: Klucel (hydroxypropylcellulose) (HPC)

## CCOC(=O)c1[nH]c2c(cc(C=O)c3ccccc32)c1C
[1]
  T/C: 92 % of control
[2]
  T/C: 91 % of control
[3]
  T/C: 90 % of control

## C=C(C)C(=O)OC1CCC2(C)C(CCC3C2CCC2(C)C(c4ccc(=O)oc4)CC4OC432)C1 (configuration not stated)
dose: 1.25 mg/kg/injection, schedule: Q01DX009 (ip), vehicle: saline with Tween-80
  T/C: 98 % of control
[4]
  T/C: 100 % of control
[5]
  T/C: 122 % of control
[6]
  T/C: 106 % of control
dose: 20.0 mg/kg/injection, schedule: Q01DX009 (ip), vehicle: saline with Tween-80
  T/C: 100 % of control

## CN(C)C1CCc2ccccc2C1OC(=O)/C=C/c1ccccc1 (configuration not stated)
[7]
  T/C: 101 % of control
[8]
  T/C: 106 % of control
[9]
  T/C: 111 % of control
dose: 100.0 mg/kg/injection, schedule: Q01DX009 (ip), vehicle: saline with Tween-80
  T/C: 111 % of control

## CN(C)CCC1c2ccc(Cl)cc2CCc2cccnc21 (configuration not stated) (tested in a mixture with another compound)
[10]
  T/C: 107 % of control
[11]
  T/C: 99 % of control

## COc1cc(O)c(Cc2ccc3c(c2)OCO3)cc1O
[4]
  T/C: 100 % of control
[5]
  T/C: 100 % of control
[6]
  T/C: 115 % of control

## CCC1=C(c2cccc(OC(C)=O)c2)C(C)c2ccc(OC(C)=O)cc21 (configuration not stated)
[12]
  T/C: 96 % of control
[13]
  T/C: 95 % of control
[14]
  T/C: 95 % of control

## O=C(O)CCN1CCCc2ccccc21
dose: 100.0 mg/kg/injection, schedule: Q04DX003 (ip), vehicle: other
  T/C: 100 % of control
dose: 200.0 mg/kg/injection, schedule: Q04DX003 (ip), vehicle: other
  T/C: 100 % of control
dose: 400.0 mg/kg/injection, schedule: Q04DX003 (ip), vehicle: other
  T/C: 109 % of control

## COc1c2ccoc2nc2c(OC)c3c(cc12)OCO3
dose: 6.25 mg/kg/injection, schedule: Q01DX009 (ip), vehicle: Klucel (hydroxypropylcellulose) (HPC)
  T/C: 105 % of control
dose: 12.5 mg/kg/injection, schedule: Q01DX009 (ip), vehicle: Klucel (hydroxypropylcellulose) (HPC)
  T/C: 99 % of control
dose: 25.0 mg/kg/injection, schedule: Q01DX009 (ip), vehicle: Klucel (hydroxypropylcellulose) (HPC)
  T/C: 94 % of control
[15]
  T/C: 94 % of control

## CCOc1ccc(/C=N/NC(=O)c2ccccc2NC(=O)c2ccccc2Cl)cc1OC
dose: 30.0 mg/kg/injection, schedule: Q01DX005 (ip), vehicle: Klucel (hydroxypropylcellulose) (HPC)
  T/C: 101 % of control
[12]
  T/C: 101 % of control and 90 % of control
[13]
  T/C: 101 % of control
[14]
  T/C: 91 % of control

## C[Si](C)(CNCCN)c1ccccc1
[16]
  T/C: 101 % of control
[17]
  T/C: 91 % of control
[18]
  T/C: 105 % of control
[19]
  T/C: 93 % of control
[20]
  T/C: 101 % of control

## [N-]=[N+]=Nc1ccccc1C(=O)NCCCNC(=O)c1ccccc1N=[N+]=[N-]
dose: 12.5 mg/kg/injection, schedule: Q01DX005 (ip), vehicle: saline with Tween-80
  T/C: 91 % of control
dose: 25.0 mg/kg/injection, schedule: Q01DX005 (ip), vehicle: saline with Tween-80
  T/C: 87 % of control
[21]
  T/C: 86 % of control

## FP1(c2ccccc2)(c2ccccc2)Nc2cc(C(c3ccccc3)(c3ccccc3)c3ccccc3)ccc2O1
[7]
  T/C: 104 % of control
[8]
  T/C: 98 % of control
[9]
  T/C: 92 % of control
dose: 200.0 mg/kg/injection, schedule: Q01DX009 (ip), vehicle: saline with Tween-80
  T/C: 95 % of control

## CCCCCCCCCCCC(=O)N(CCO)CCc1ccccc1
[22]
  T/C: 101 % of control and 91 % of control
[23]
  T/C: 101 % of control and 109 % of control and 95 % of control
[24]
  T/C: 100 % of control and 103 % of control
dose: 200.0 mg/kg/injection, schedule: Q01DX009 (ip), vehicle: saline
  T/C: 103 % of control and 110 % of control

## [N-]=[N+]=NCc1cnnn1C1OC(CO)C(O)C1O (configuration not stated)
[17]
  T/C: 102 % of control
[19]
  T/C: 115 % of control
dose: 240.0 mg/kg/injection, schedule: Q01DX005 (ip), vehicle: saline
  T/C: 99 % of control

## C1CC[N-]CC1.C1CC[N-]CC1.C1CC[N-]CC1.C1CC[N-]CC1.[Cl][Rh][Cl]
dose: 3.13 mg/kg/injection, schedule: Q01DX009 (ip), vehicle: saline with Tween-80
  T/C: 120 % of control
dose: 4.0 mg/kg/injection, schedule: Q01DX009 (ip), vehicle: saline
  T/C: 118 % of control
dose: 6.25 mg/kg/injection, schedule: Q01DX009 (ip), vehicle: saline with Tween-80
  T/C: 120 % of control and 123 % of control
[7]
  T/C: 120 % of control
[8]
  T/C: 92 % of control

## CCOC(=O)c1ccc(NC(=O)OC2CCCC2)cc1
[16]
  T/C: 92 % of control
[18]
  T/C: 90 % of control
[20]
  T/C: 89 % of control

## C=CCC(CCCCCCCCCCCCC)C(=O)O (configuration not stated)
[1]
  T/C: 104 % of control
[2]
  T/C: 95 % of control
[3]
  T/C: 91 % of control

## CC(=O)OC1(C)SCCN1C(N)=O (configuration not stated)
[15]
  T/C: 99 % of control
dose: 100.0 mg/kg/injection, schedule: Q01DX009 (ip), vehicle: Klucel (hydroxypropylcellulose) (HPC)
  T/C: 104 % of control
dose: 200.0 mg/kg/injection, schedule: Q01DX009 (ip), vehicle: Klucel (hydroxypropylcellulose) (HPC)
  T/C: 100 % of control

## NNC(=S)NCCN1CCOCC1
[10]
  T/C: 105 % of control
[11]
  T/C: 105 % of control
dose: 200.0 mg/kg/injection, schedule: Q01DX005 (ip), vehicle: saline
  T/C: 100 % of control

## S=c1nc[nH]c2c1ncn2CN1CCCCC1
[9]
  T/C: 118 % of control
dose: 66.0 mg/kg/injection, schedule: Q01DX009 (ip), vehicle: saline sonified
  T/C: 122 % of control
dose: 150.0 mg/kg/injection, schedule: Q01DX009 (ip), vehicle: saline sonified
  T/C: 90 % of control

## Cc1ccc(S(=O)(=O)CC(=O)CC(=O)C(=O)Nc2ccc(C)cc2C)cc1
[16]
  T/C: 108 % of control
[18]
  T/C: 106 % of control
[20]
  T/C: 99 % of control

## O=C1c2ccccc2C(=O)c2c(-c3ccc(Cl)cc3)noc21
[25]
  T/C: 94 % of control
[26]
  T/C: 93 % of control
[27]
  T/C: 90 % of control

## CN1CCC/C1=C1/Cc2ccccc2C1=O
[25]
  T/C: 91 % of control
[26]
  T/C: 108 % of control

## COc1ccc(-c2cn(-c3ccccc3)c3ncnc(N)c23)cc1
[16]
  T/C: 102 % of control
[18]
  T/C: 103 % of control
[20]
  T/C: 103 % of control

## CC([NH-])C(C)[NH-].[Cl][Pt+2][Cl] (configuration not stated)
dose: 3.12 mg/kg/injection, schedule: Q01DX001 (ip), vehicle: Klucel (hydroxypropylcellulose) (HPC)
  T/C: 119 % of control
dose: 12.5 mg/kg/injection, schedule: Q01DX001 (ip), vehicle: Klucel (hydroxypropylcellulose) (HPC)
  T/C: 153 % of control and 154 % of control
dose: 25.0 mg/kg/injection, schedule: Q01DX001 (ip), vehicle: Klucel (hydroxypropylcellulose) (HPC)
  T/C: 184 % of control

## CCOc1c(N=Nc2cccc(Cl)c2)c(-c2ccccc2)nn1C(N)=S
[21]
  T/C: 111 % of control
dose: 100.0 mg/kg/injection, schedule: Q01DX005 (ip), vehicle: saline with Tween-80
  T/C: 101 % of control
dose: 200.0 mg/kg/injection, schedule: Q01DX005 (ip), vehicle: saline with Tween-80
  T/C: 96 % of control

## CC([NH-])C(=O)O.O=C(O)CN(CC(=O)O)CC(=O)O.[Co+2]
[22]
  T/C: 104 % of control
[23]
  T/C: 113 % of control
[24]
  T/C: 104 % of control and 90 % of control

## COC(=O)C1C(O)CCC2CN3CCc4c([nH]c5cccc(OC)c45)C3CC21 (configuration not stated)
dose: 25.0 mg/kg/injection, schedule: Q01DX005 (ip), vehicle: Klucel (hydroxypropylcellulose) (HPC)
  T/C: 104 % of control
[25]
  T/C: 105 % of control
[26]
  T/C: 104 % of control
[27]
  T/C: 101 % of control

## c1cc2c3c(cccc3c1)NN=N2
dose: 60.0 mg/kg/injection, schedule: Q01DX005 (ip), vehicle: Klucel + Tween-80
  T/C: 106 % of control
dose: 120.0 mg/kg/injection, schedule: Q01DX005 (ip), vehicle: Klucel + Tween-80
  T/C: 99 % of control
dose: 240.0 mg/kg/injection, schedule: Q01DX005 (ip), vehicle: Klucel + Tween-80
  T/C: 96 % of control
